Assay results taken from patent US12398110B2, “Second generation inhibitors of mitochondrial permeability transition pore with improved plasma stability” (Oregon Health & Science University, priority 2019, dated 2025).

Experiments:
[1] = system: col6a1 zebrafish morphants; experiment: Survival of col6a1 zebrafish morphants; type: in vivo
From the text: In FIG. 6D, the left panel represents data from embryos injected with a scrambled morpholino (scrd_MO, open squares), Exon 9 col6a1 morpholino (col6a1_MO, closed squares) and col6a1_MO embryos treated with TR001 at 0.1 μm (open circles), 1.0 μm (open triangles), 10 μm (open diamonds). Right panel represents data from embryos injected with a scrambled morpholino (scrd_MO, open squares), Exon 9 col6a1 morpholino (col6a1_MO, closed squares) and col6a1_MO embryos treated with 63 at […] (closed circles), 1.0 μm (closed triangles), 10 μm (closed diamonds). Embryos were treated with oligomycin, FCCP, rotenone (R) and antimycin A (A) as indicated. Results are presented as mean±SEM. Both graphs report data from 5 independent experiments with n=20 for each treatment. Error bars are reported as SEM. FIG. 6E, Survival of DMSO-treated zebrafish injected with the scrambled morpholino (open squares), DMSO-treated col6a1 morphants (closed squares) and col6a1 morphants treated with TR001 (0.1 μm, open triangles; 1.0 μm, open circles; 10 μm, open diamonds) or 63 (0.1 μm, closed triangles; 1.0 μm, closed circles; 10 μm, closed diamonds) were recorded for 30 days. Treatment started at 21 hpf and repeated at 4 dpf (arrows). Data report the percentage of surviving fish and are mean±SEM from 3 independent experiments (n=15 for each condition in each set).
Finally, fish survival was also assessed. Fifty percent of col6a1 morphant embryos treated with 0.1 μm of TR001 survived 7 days longer than col6a1 morphants treated with DMSO (p<0.0001 from 3 to 12 dpf), and 20% were still alive at 30 dpf (i.e., after 29 days of treatment) (FIG. 6E).
(§1) Morpholino antisense injection and treatment. Knock-down of col6a1 gene expression was obtained with a previously published morpholino ^[25] with sequence GAGAGCGGAAGACGAACCTTCATTC (SEQ ID NO: 2; GeneTools, Inc.). A control morpholino with no sequence homology in the zebrafish genome was used in parallel (CCTCTTACCTCAGTTACAATTTATA; SEQ ID NO: 3). Zebrafish eggs from wild-type matings were injected at the 1-2 cell stage with approximately 10 nL of 0.1 mm morpholino solution (corresponding to 4 ng of morpholino) using a WPI pneumatic PicoPump PV820 injector (World Precision Instruments, Inc.). Zebrafish embryos were dechorionated at 20 hours post fertilization (hpf) and treated at 21 hpf with increasing doses (0.1, 1 and 10 μm) of both TR001 and 63 compounds dissolved in fish water with 1% DMSO (vehicle).
Survival. Zebrafish survival was monitored every 3 days for 30 days. Drug treatment with both TR001 and 63 dissolved in fish water with 1% DMSO started at 21 hpf. After 3 days of treatment (4 days post fertilization, dpf), zebrafish were moved to a bigger tank (50 mL) with fresh compounds dissolved in 1% DMSO. As a control vehicle, fish water with 1% DMSO was used.

[2] = system: col6a1 zebrafish morphants; experiment: Touch-evoked escape response in col6a1 zebrafish morphants; type: in vivo; conditions: 48 hpf, 27 hours of treatment, 0.1, 1 and 10 μm
Procedure: Zebrafish embryos were injected with col6a1 morpholino at the 1-cell stage, dechorionated at 20 hpf and treated at 21 hpf with 0.1, 1 or 10 μm of either TR001 or 63. DMSO-treated embryos injected with a scrambled morpholino were used as a control. […] It should be noted that in these protocols, embryos were exposed to drugs for a longer period of time than in the spontaneous coiling experiments. This difference may help to explain why TR001 was as effective at 0.1 μm as it was at 1 and 10 μm.
as §1
Motor activity. The number of spontaneous coiling events performed in 15 seconds by single zebrafish embryos was recorded at 24 hpf by light microscopy. Touch-evoked escape responses were recorded at 48 hpf by observing the ability of zebrafish embryos to escape after a tail-touch with a little tip. Embryos were subdivided in 4 groups according to the observed phenotype: paralyzed embryos, score 0; underdeveloped embryos showing only coiling events, score 1; embryos showing lower motility, score 2; normal embryos, score 3.

[3] = Plasma stability determination in mouse plasma; type: in vitro ADME
Procedure: Plasma stability determination. The degradation of TR001 in the presence of mouse plasma (from Innovative Research) was used to predict the plasma stability of the compound to esterase catalyzed hydrolysis. A positive control for plasma cholinesterase, propantheline bromide, was included in all assays. Briefly, murine plasma was incubated with 1 μm TR001. Aliquots were removed at t=0, 5, 15, 30, and 60 and 120 min and quenched with acetonitrile containing structurally related compound (TR073) as the internal standard. The amount of TR001 remaining in the supernatant was assessed by LC-MS/MS in multiple reaction monitoring mode (MRM) using a 4000 QTRAP (SCIEX) with electrospray ionization source. The instrument was operated in negative mode with source parameters: source voltage […], GS1 50, GS2 50, CUR 30, TEM 650 and CAD gas MED. Optimal MRM transitions were obtained by direct infusion of the pure compound into the source. The mass spectrometer was interfaced to a Shimadzu (Columbia, MD) SIL-20AC XR auto-sampler maintained at 35° C. followed by 2 LC-20AD XR LC pumps. The internal standard and compound of interest were resolved using a Gemini-NX C18 50×2.1 mm column (Phenomenex) with 0.1% formic acid (solvent A) and 0.1% formic acid in acetonitrile (solvent B). The injection volume was 10 μL at a flow rate of 0.75 mL/min. The gradient elution was 10% B to 95% B over 5 min and held at 95% for 1 min before returning to start conditions. The column was maintained at 40° C. using a Shimadzu CTO-20AC column oven. Data were acquired using Analyst 1.6.2 and analyzed using Multiquant 3.0.1 software. The first-order rate constant for substrate depletion was determined from a linear least squares fit of the natural log of the percent parent compound remaining versus time. The rate constant was used to calculate the plasma half-life as an indicator of stability.

Compound: Cc1ccc(Cl)cc1NC(=O)c1cn(-c2ccc(F)c(O)c2)nn1 [TR001, N-(5-chloro-2-methylphenyl)-1-(4-fluoro-3-hydroxyphenyl)-1H-1,2,3-triazole-4-carboxamide]
- days longer survival of fifty percent of embryos than DMSO treated morphants ([1]; 0.1 μm): 7 days
- percent still alive at 30 dpf ([1]; 0.1 μm, after 29 days of treatment): 20%
- survival (in words) ([1]; 1 μm): effective at improving survival rate
- survival (in words) ([1]; 10 μm): ineffective
- touch-evoked escape response (motility) [2]: improved
- fold increase in plasma stability compared to 63 ([3]; TR001 vs 63): 47 fold
- half-life at 1 µM ([3]; mouse, read-out: Mouse Plasma t1/2): 16.5 h
